Values joined by “and” are separate entries in the source; they are usually repeats but may differ in a detail not shown here. Equal entries are not always repeated.
Experiments:
MDA pERK = MDA pERK ELISA; assay type: cell-based
[1] = tested on: phosphorylated ERK in MDA-MB-231 breast cancer cells; experiment: Generation of EC50 data: Western blotting for phosphorylated ERK in EGF-stimulated cells; assay type: cell-based
Experimental: Effects of compounds in the cell were determined by Western blotting for phosphorylated ERK. MDA-MB-231 breast cancer cells were plated in a 48 well plate at 20,000 cells per well and grown in a 37° humidified CO2 incubator. The following day, the growth media (DMEM+10% fetal bovine serum) was removed and replaced with starve media (DMEM+0.1% fetal bovine serum). Cells were incubated in the starve media for sixteen hours and then treated with a range of compound concentrations for thirty minutes. After incubation with compound, cells were stimulated with 100 ng/ml EGF for five minutes. The cells were then lysed and analyzed by Western blot using a monoclonal antibody raised to phosphorylated ERK. The signal was amplified using a secondary antibody conjugated to a near-IR dye and detected on a Licor Odyssey scanner.

[2] = tested on: orthotopic Hep3B2.1-7 human hepatic carcinoma; experiment: Growth response of orthotopic Hep3B tumors in nude mice; assay type: in vivo, BALB/c nu/nu mice
Experimental: (§1) Female BALB/c nu/nu mice (University of Adelaide, Waite Campus, SA, Australia), aged 10-14 weeks, with a body weight range: of 19.1-29.94 g (mean 22.95 g) were used for the study. The mice were divided into 6 Study groups (4 treatment groups and 2 control groups) as follows: • Number of Mice per Group: 10 in Groups 1 to 5 inclusive • 15 in ‘Take-Rate’ Control Group (Group 6)
Hep3B human hepatic carcinoma cells (Passage 2 from working stock VP-Stock 353) were cultured in RPMI1640 cell culture medium, which was supplemented with 10% FBS and penicillin-streptomycin (501 U/mL final concentration). The cells were harvested by trypsinisation, washed twice in HBSS and counted. The cells were then resuspended in HBSS:Matrigel (1:1, v/v) and adjusted to a final volume containing 1×10^8 cells/mL. Prior to inoculation, the incision site was liberally swabbed with alcohol and an incision made through the abdominal wall to expose the liver. The needle was introduced through the surface of the liver where 10 μL of cells (1×10^6 cells) were discharged. The needle was held in this position for approximately 30 seconds to allow the Matrigel® to polymerize in order to avoid leakage of tumor cells into the abdominal cavity.
Treatment commenced 14 days post-inoculation. On Day 7 of the study (21 days post-inoculation), all mice from the ‘Take-Rate’ control group were culled and the livers visually assessed for the presence of tumors.
A stock solution was prepared weekly and stored at 4° C. Dosing solutions were prepared on each day of administration. […] The compound was administered at doses of 2, 10 and 50 mg/kg.
Liver and tumor wet weight were measured when each were excised post-mortem on the termination day of the study. At the termination of the study, livers were excised from all mice in each study group and weighed. The number of visible tumors, if present, was counted. These tumors were removed from the liver and weighed.
A One-Way Analysis of Variance (ANOVA) (All Pairwise Multiple Comparison Procedure and Multiple Comparison versus Control Group) was performed on liver weight and tumor weight data at the end of the study. […] The same statistical analyses were performed on the data for the tumor-bearing mice in the study.

[3] = tested on: orthotopic HT-29 human colorectal adenocarcinoma; experiment: Growth response of orthotopic HT-29 colon tumors in nude mice; assay type: in vivo, BALB/c nu/nu mice
Experimental: as §1, with “7-12” for “10-14”, “16.58-25.39” for “19.1-29.94”, “21.52” for “22.95”, “9” for “15”
HT-29 human colorectal adenocarcinoma cells (Passage 4 from working stock VP-Stock 325) were cultured in RPMI1640 cell culture medium, which was supplemented with 10% FBS and penicillin-streptomycin (501 U/mL final concentration). The cells were harvested by trypsinisation, washed twice in HBSS and counted. The cells were then resuspended in HESS and adjusted to a final volume containing 2×10^8 cells/mL. Prior to inoculation, the incision site was liberally swabbed with alcohol and an incision made through the abdominal wall to expose the caecum wall. The needle was introduced through the surface of the caecum wall where 5 μL of cells (1×10^6 cells) were discharged.
A stock solution was prepared weekly and stored at 4° C. Dosing solutions were prepared on each day of administration.
Caecum and tumor wet weight were measured when each were excised post-mortem on the termination day of the study. At the termination of the study, the caecum was excised from all mice in each study group and weighed with the tumors intact. The tumors were then excised from the caecum and weighed.
A two-sample t-test was used to determine the significance in body weight change within a treatment group between Day 0 and the termination day of the study. […] In these groups, a two-sample t-test was used to determine the significance in body weight change within a treatment group between Day 0 and the final treatment day of the study, and between the last treatment day and the termination day of the study.
A One-Way Analysis of Variance (ANOVA) (All Pairwise Multiple Comparison Procedure and Multiple Comparison versus Control Group) was performed on the caecum weight and tumor weight data at the end of the study.

[4] = Homo sapiens, EC50 classes per legend (pERK, MDA-MB-231 cells), classes D and F also cite IC50
[5] = 5FU 75 mg/kg i.v. Day 0, 7 and 14, tumor-bearing mice
[6] = 5FU 75 mg/kg, individual animals, listed as 5FU
[7] = 5FU 75 mg/kg, mice surviving to final day

EC50 [1, 4] | SMILES | other results
< 2 nM | O=S(=O)(Nc1ccc(F)c(F)c1Nc1ccc(I)cc1F)C1(CC(O)CO)CC1 (racemic) [Example 1018] | 
2 to 15 nM | COc1cc(F)c(F)c(Nc2ccc(I)cc2F)c1NS(=O)(=O)C1(C[C@@H](O)CO)CC1 [Example 1022] | 
2 to 15 nM | O=S(=O)(Nc1c(F)cc(F)c(F)c1Nc1ccc(I)cc1F)C1(C[C@H](O)CO)CC1 [Example 1023] | 
> 100 nM | O=S(=O)(Nc1ccc(F)c(F)c1Nc1ccc(I)cc1F)c1ccccc1F [Example 1015] | 
15 to 100 nM | O=S(=O)(Nc1ccc(F)c(F)c1Nc1ccc(I)cc1F)c1ccsc1 [Example 1016] | 
15 to 100 nM | O=S(=O)(Nc1ccc(F)c(F)c1Nc1ccc(I)cc1F)c1ccccc1 [Example 1014] | 
2 to 15 nM | COc1cc(F)c(F)c(Nc2ccc(I)cc2F)c1NS(=O)(=O)C1CCC1 [Example 1025] | 
< 2 nM | O=S(=O)(Nc1c(F)cc(F)c(F)c1Nc1ccc(I)cc1F)C1(CC(O)CO)CC1 (racemic) [Example 1020] | 
15 to 100 nM | COCCOc1cc(F)c(F)c(Nc2ccc(I)cc2F)c1NS(=O)(=O)C1(CC(O)CO)CC1 (stereo not drawn) [Example 1030] | 
< 2 nM | COc1cc(F)c(F)c(Nc2ccc(I)cc2F)c1NS(=O)(=O)C1(CCO)CC1 [Example 1026] | 
15 to 100 nM | CCc1cc(F)c(F)c(Nc2ccc(I)cc2F)c1NS(=O)(=O)C1(CC(O)CO)CC1 (stereo not drawn) [Example 1029] | 
< 2 nM | O=S(=O)(Nc1ccc(F)c(F)c1Nc1ccc(I)cc1F)C1(CCO)CC1 [Example 1027] | 
2 to 15 nM | Cc1cc(I)ccc1Nc1c(NS(=O)(=O)C2CC2)ccc(F)c1F [Example 1017] | 
< 2 nM | COc1cc(F)c(F)c(Nc2ccc(I)cc2F)c1NS(=O)(=O)C1(CC(CO)CO)CC1 [Example 1028] | 
2 to 15 nM | O=S(=O)(Nc1c(F)cc(F)c(F)c1Nc1ccc(I)cc1F)C1(C[C@@H](O)CO)CC1 [Example 1024] | 
< 2 nM | COc1cc(F)c(F)c(Nc2ccc(I)cc2F)c1NS(=O)(=O)C1(CC(O)CO)CC1 (racemic) [Example 1019] | 

The next lines start with the molecule.

SMILES | EC50 [1, 4] | other results
Cn1cc(S(=O)(=O)Nc2ccc(F)c(F)c2Nc2ccc(I)cc2F)c(C(F)(F)F)n1 [Example 0621026] |  | EC50 (MDA pERK): 100 to 200 nM
COC(=O)c1ccc(S(=O)(=O)Nc2ccc(F)c(F)c2Nc2ccc(I)cc2F)n1C [Example 0561608] |  | EC50 (MDA pERK): 15 to 100 nM
COc1cc(F)c(F)c(Nc2ccc(I)cc2F)c1NS(=O)(=O)C1(C[C@H](O)CO)CC1 [Example 1021] | < 2 nM | 
COc1cc(F)c(F)c(Nc2ccc(I)cc2F)c1NS(=O)(=O)C1(C[C@@H](O)CO)CC1 [Eg. 99 (R isomer), N—(R)-(3,4-difluoro-2-(2-fluoro-4-iodophenylamino)-6-methoxyphenyl)-1-(2,3-dihydroxypropyl)cyclopropane-1-sulfonamide] |  | EC50 ([1]; EC50 class): 2 to 15 nM
O=S(=O)(Nc1c(F)cc(F)c(F)c1Nc1ccc(I)cc1F)C1CC1 [Example 1004] | 15 to 100 nM | 
O=c1[nH]cc(F)c(=O)[nH]1 [5-Fluorouracil, reference compound] |  | No. of Mice with Tumors (out of 10) ([2]; 5FU 75 mg/kg i.v. Day 0, 7 and 14): 4; Average Liver Weight [2, 5]: 1.217 g; Average Tumor Weight [2, 5]: 0.143 g; average weight of the tumors vs Vehicle Control ([2]; tumor-bearing mice, 75 mg/kg i.v. once per week): significantly different; average weight of the liver vs Vehicle Control ([2]; tumor-bearing mice, 75 mg/kg i.v. once per week, p<0.05): significantly different; weight of the caecum and HT-29 tumors ([3]; 75 mg/kg i.v. once per week): no effect; Caecum Weight [3, 6]: 0.355 g and 0.199 g and 0.360 g and 0.284 g and 0.421 g and 0.706 g and 0.415 g and 0.327 g and 0.237 g and 0.377 g; Tumour Weight [3, 6]: 0.245 g and 0.001 g and 0.000 g (3×) and 0.010 g and 0.329 g and 0.130 g and 0.079 g and 0.003 g; Average Caecum Weight [3, 7]: 0.391 g; Average Tumour Weight [3, 7]: 0.069 g
O=S(=O)(Nc1ccc(F)c(F)c1Nc1ccc(-c2ccncc2)cc1F)C1CC1 [Example 0497688] |  | EC50 (MDA pERK): > 200 nM
COc1cc(F)c(F)c(Nc2ccc(C)cc2C)c1NS(C)(=O)=O [Example 1010] | < 2 nM | 
O=S(=O)(Nc1ccc(F)c(F)c1Nc1ccc(I)cc1F)C1CCNCC1 [Example 0561599] |  | EC50 (MDA pERK): 15 to 100 nM
CC(=O)c1cccc(-c2ccc(Nc3c(NS(=O)(=O)C4CC4)ccc(F)c3F)c(F)c2)c1 [Example 0499266] |  | EC50 (MDA pERK): > 200 nM
COc1cc(F)c(F)c(Nc2ccc(I)cc2F)c1NS(=O)(=O)C1(C[C@H](O)CO)CC1 [Eg. 98 (S isomer)] |  | EC50 ([1]; EC50 class): < 2 nM
Cn1cc(-c2ccc(Nc3c(NS(=O)(=O)C4CC4)ccc(F)c3F)c(F)c2)cn1 [Example 0497620] |  | EC50 (MDA pERK): > 200 nM
CCCCS(=O)(=O)Nc1ccc(F)c(F)c1Nc1ccc(I)cc1F [Example 1003] | 15 to 100 nM | 
O=S(=O)(Nc1ccc(F)c(F)c1Nc1ccc(I)cc1F)c1cccs1 [Example 1005] | 15 to 100 nM | 
CC(C)(C)S(=O)(=O)Nc1ccc(F)c(F)c1Nc1ccc(I)cc1F [Example 1009] | 15 to 100 nM | 
O=S(=O)(Nc1ccc(F)c(F)c1Nc1ccc(-c2ccccc2)cc1F)C1CC1 [Example 0497692] |  | EC50 (MDA pERK): > 200 nM
O=S(=O)(Nc1ccc(F)c(F)c1Nc1ccc(I)cc1F)C1CCCCC1 [Example 1008] | 15 to 100 nM | 
COc1cc(F)c(F)c(Nc2ccc(I)cc2F)c1NS(=O)(=O)C1(CC(O)CO)CC1 (racemic) [Eg. 97 (Racemic), N-(3,4-difluoro-2-(2-fluoro-4-iodophenylamino)-6-methoxyphenyl)-1-(2,3-dihydroxypropyl)cyclopropane-1-sulfonamide] |  | EC50 ([1]; EC50 class): < 2 nM
COc1cc(F)c(F)c(Nc2ccc(I)cc2F)c1NS(=O)(=O)C1CC1 [Example 1013] | 2 to 15 nM | 
Cc1ccc(S(=O)(=O)Nc2ccc(F)c(F)c2Nc2ccc(I)cc2F)s1 [Example 1011] | 15 to 100 nM | 
O=S(=O)(Nc1ccc(F)c(F)c1Nc1ccc(I)cc1F)c1ccsc1 [Example 0620927] |  | EC50 (MDA pERK): 15 to 100 nM
O=S(=O)(Nc1ccc(F)c(F)c1Nc1ccc(-c2cccnc2)cc1F)C1CC1 [Example 0497689] |  | EC50 (MDA pERK): > 200 nM
O=S(=O)(Nc1ccc(F)c(F)c1Nc1ccc(I)cc1F)C1CC1 [Example 1001] | < 2 nM | 
CC1(S(=O)(=O)Nc2ccc(F)c(F)c2Nc2ccc(I)cc2F)CC1 [Example 1012] | 2 to 15 nM | 
O=S(=O)(Nc1ccc(F)c(F)c1Nc1ccc(I)cc1F)c1ccc(-c2nsc(Cl)n2)s1 [Example 0530701] |  | EC50 (MDA pERK): 100 to 200 nM
O=S(=O)(Nc1ccc(F)c(F)c1Nc1ccc(I)cc1F)c1ccco1 [Example 1006] | 15 to 100 nM | 
CC(C)S(=O)(=O)Nc1ccc(F)c(F)c1Nc1ccc(I)cc1F [Example 1002] | 2 to 15 nM | 
O=S(=O)(Nc1ccc(F)c(F)c1Nc1ccc(I)cc1F)C1CCCC1 [Example 1007] | 15 to 100 nM | 
CS(=O)(=O)Nc1ccc(F)c(F)c1Nc1ccc(I)cc1F [Example 1000] | < 2 nM | 
